Test results from US7208140B2, “Trimeric macrocyclic substituted benzene derivatives” (Schering Aktiengesellschaft, priority 2003, dated 2007).
Several values for one entry are separate records, joined by “and”; a condition that tells them apart may be missing. Equal values may be shown once.

Legend:
[1] = Distribution coefficient in 1-butanol and tris-HCl buffer; assay type: physicochemical; conditions: for Distribution Coefficient of Butanol/Water: 1-butanol and tris-HCl buffer at pH 7.6
Protocol: The distribution coefficient of Example 3F was determined in comparison to Gadovist, iopromide and iotrolan in 1-butanol and tris-HCl buffer at pH 7.6.

[2] = tested on: Epithelial cell line MDCK; assay: Neutral red test of cell viability in epithelial cells of the distal renal tubule; assay type: cell-based, canine; conditions: 50% reduction of cell viability after 24 hours
Protocol: To determine the IC-50, the neutral red test was used in epithelial cells of the distal renal tubule. In addition, this test is very helpful for predicting with high accuracy the LD-50 values of newly synthesized compounds.
Epithelial cell line MDCK of the renal distal renal tubule of a canine kidney (ECACC No. 85011435) was incubated from 10,000 cells/well in Alpha MEM Eagle (10% fetal bovine serum) at 37° C. and 5% CO2, 95% atmospheric humidity for 20 hours with various Examples 1B, 3F and 5F. Neutral red was used as an indicator for cell viability and for measuring lyosomal integrity and employed to determine those contrast medium concentrations in which a 50% reduction of cell viability (IC-50) occurred after 24 hours.
Four independent replicates were tested for each concentration of contrast medium. […] The latter is a reference compound in clinical practice and a contrast medium with proven excellent compatibility. The highest compatibility was found for Example 3F with 1170 μmol of I eq/ml.

Male Wistar rats = assay: CT studies (computer tomography) of rats after intravenous injection; assay type: in vivo, rat; conditions: i.v.
Protocol: By way of example, the suitability of the described compound class was examined in Example 1B with the aid of computer tomography (CT) of rats. For the CT studies, a Siemens Somatom CR was available. The 5-second image was prepared with a layer thickness of 2 mm and a tube voltage of 125 kV. Substance 1B was formulated as an aqueous solution at a concentration of 0.17 mol/l (corresponds to 145 mg (1+Gd)/ml.
Male Wistar rats (400 g of body weight) were scanned before (FIG. 1a) and after intravenous injection (FIG. 1) of 1B in a dose of 0.15 mmol/kg (corresponds to 127 mg of (I+Gd)/kg).
This early phase reflects the blood perfusion of the renal cortex.

Wistar rats = assay: MRT studies (angiography and organ visualization) of rats after intravenous injection; assay type: in vivo, rat; conditions: i.v.
Protocol: The same substance (IB) was examined with the aid of magnetic resonance tomography (MRT) as a contrast medium.
The MRT studies were performed on a 1.5 T device (Siemens Symphonie with 40 mT/m gradients). 400 g Wistar rats were examined with T1-weighted image sequences (angiography TR 2.54 ms, TE 1.12 ms und α=40° or organ visualization TR 54 ms, TE 4.8 ms and α=40°). The angiography (MRA, FIG. 3) was from 0–60 seconds p.i., and the organ visualization (FIGS. 4a and b) was prepared 15 minutes after the injection. Substance 1B was formulated as an aqueous solution at a concentration of 0.17 mol/l (corresponds to 0.5 mol of Gd/l) and was intravenously injected in a dose of 0.03 mmol of substance or 0.1 mmol of Gd/kg.

Distribution Coefficient of Butanol/Water [1]	Structure (SMILES)	IC50 [2]	also measured
0.0002 and 0.0002 ± 0.0001	O=C([O-])CN1CCN(CC(=O)[O-])CCN(CC(=O)NCCNC(=O)c2c(I)c(C(=O)NCCNC(=O)CN3CCN(CC(=O)[O-])CCN(CC(=O)[O-])CCN(CC(=O)[O-])CC3)c(I)c(C(=O)NCCNC(=O)CN3CCN(CC(=O)[O-])CCN(CC(=O)[O-])CCN(CC(=O)[O-])CC3)c2I)CCN(CC(=O)[O-])CC1.[Gd+3].[Gd+3].[Gd+3] [Example 3F, 2,4,6-Triiodotrimesic acid-N,N,N-tris-(3-aza-4-oxopentane-1,5-diyl-{10-[1,4,7-tris-(carboxylatomethyl)-1,4,7,10-tetrazacyclododecanyl, Gdcomplex]})amide]	1170 μmol of I eq/ml	
0.051 ± 0.003	COCC(=O)Nc1c(I)c(C(=O)NCC(O)CO)c(I)c(C(=O)N(C)CC(O)CO)c1I (stereo not drawn) [Iopromide]		distribution coefficient of butanol/water relative to Example 3F ([1]; 0.051 vs. 0.0002): ≤ 255 ×; Distribution Coefficient of Butanol/Water ([1]; listed as lopromide): 0.051
	O=C([O-])CN1CCN(CC(=O)[O-])CCN(CC(O)CNC(=O)c2c(I)c(C(=O)NCC(O)CN3CCN(CC(=O)[O-])CCN(CC(=O)[O-])CCN(CC(=O)[O-])CC3)c(I)c(C(=O)NCC(O)CN3CCN(CC(=O)[O-])CCN(CC(=O)[O-])CCN(CC(=O)[O-])CC3)c2I)CCN(CC(=O)[O-])CC1.[Gd+3].[Gd+3].[Gd+3] (stereo not drawn) [Example 5G, 1,3.5-Triiodotrimesic acid-N,N,N-tris-(2-hydroxypropane-1,3-diyl-{10-[1,4,7-tris-(carboxylatomethyl)-1,4,7,10-tetraazacyclododecanyl]}, Gdcomplex)amide]	788 μmol of I eq/ml	
	CC(C(=O)NCC(=O)NCCNC(=O)c1c(I)c(C(=O)NCCNC(=O)CNC(=O)C(C)N2CCN(CC(=O)[O-])CCN(CC(=O)[O-])CCN(CC(=O)[O-])CC2)c(I)c(C(=O)NCCNC(=O)CNC(=O)C(C)N2CCN(CC(=O)[O-])CCN(CC(=O)[O-])CCN(CC(=O)[O-])CC2)c1I)N1CCN(CC(=O)[O-])CCN(CC(=O)[O-])CCN(CC(=O)[O-])CC1.[Gd+3].[Gd+3].[Gd+3] (stereo not drawn) [Example 1B, 1,3,5-Triiodotrimesic acid-N,N,N-tris-(3,6-diaza-4,7-dioxo-8-methyloctane-1,8-diyl-{10-[1,4,7-tris-(carboxylatomethyl)-1,4,7,10-tetraazacyclododecanyl, Gd-complex]})amide]	930 μmol of I eq/ml	CT contrasting of vessels and renal cortex (early phase) (Male Wistar rats; 0.15 mmol/kg (127 mg of (I+Gd)/kg), 125 kV): very clear contrasting of the blood-conveying vessels (A) and the renal cortex (N); renal excretion (contrasting of renal pelvis in CT) (Male Wistar rats; 0.15 mmol/kg, 15 minutes later): quick renal excretion; MRA visualization of arteries and heart (Wistar rats; 0.03 mmol of substance or 0.1 mmol of Gd/kg, 1.5 T, 0-60 seconds p.i.): excellent ability to visualize the large arteries (aorta, femoral artery) as well as the heart; MRT whole-body image, organ contrasting (Wistar rats; 0.1 mmol of Gd/kg, 1.5 T, 15 minutes after the injection): clear contrasting of liver (L) as well as kidneys; renal elimination (ureter visualized in MRT) (Wistar rats; 0.1 mmol of Gd/kg, 15 minutes after the injection): quick renal elimination
0.006 ± 0.0007	O=C([O-])CN1CCN(CC(=O)[O-])CCN([C@H](CO)[C@H](O)CO)CCN(CC(=O)[O-])CC1.[Gd+3] (racemic) [Gadobutrol, reference compound]	153 μmol of I eq/ml	

Structure (SMILES)	Distribution Coefficient of Butanol/Water [1]	IC50 [2]	also measured
CN(C(=O)CC(=O)N(C)c1c(I)c(C(=O)NC(CO)C(O)CO)c(I)c(C(=O)NC(CO)C(O)CO)c1I)c1c(I)c(C(=O)NC(CO)C(O)CO)c(I)c(C(=O)NC(CO)C(O)CO)c1I (stereo not drawn) [Iotrolan]	0.0065 ± 0.002		
